Experimental findings from patent US11708348B2, “Protease inhibitors for treatment of coronavirus infections” (The Scripps Research Institute, priority 2021, dated 2023) are described below.

The term EC50 denotes the concentration at which the effect is half-maximal.

For one assay, the system named is SARS-CoV-2 strain USA-WA1/2020. The assay is described as follows: microbe, parasite or virus in culture. To be noted: Severe acute respiratory syndrome coronavirus 2, HeLa-ACE2, 24 h, HeLa-ACE2 cells, SARS-CoV-2 infection, 24 h; given as bound; read-out: EC50, uM (Hela). The assay is classed as cell-based.
In the case of `Cc1cccnc1NC(=O)C(=O)N1C[C@@H]2CCC[C@@H]2[C@H]1C(=O)N[C@@H](C[C@@H]1CCNC1=O)C(=O)COC(F)(F)F` [Compound 550, (1S,3aR,6aS)-2-(2-((3-methylpyridin-2-yl)amino)-2-oxoacetyl)-N-((S)-3-oxo-1-((S)-2-oxopyrrolidin-3-yl)-4-(trifluoromethoxy)butan-2-yl)octahydrocyclo-penta[c]pyrrole-1-carboxamide], the concentration for a half-maximal effect (EC50) was greater than 1 µM.

On to `C[C@@H]1C[C@H]2[C@H](C[C@@H](C(=O)N[C@@H](C[C@@H]3CCNC3=O)C(=O)COC(F)(F)F)N2C(=O)C(=O)NC(C)(C)C)O1` [Compound 551, (2R,3aS,5S,6aS)-4-(2-(tert-butylamino)-2-oxoacetyl)-2-methyl-N-((S)-3-oxo-1-((S)-2-oxopyrrolidin-3-yl)-4-(trifluoromethoxy)butan-2-yl)hexahydro-2H-furo[3,2-b]pyrrole-5-carboxamide], for which the EC50 was greater than 1 µM.

With `O=C1NCC[C@H]1C[C@H](NC(=O)[C@@H]1[C@H]2CCC[C@H]2CN1C(=O)c1noc2c1CNCC2)C(=O)COC(F)(F)F` [Compound 556, (1S,3aR,6aS)-N-((S)-3-oxo-1-((S)-2-oxopyrrolidin-3-yl)-4-(trifluoromethoxy)butan-2-yl)-2-(4,5,6,7-tetrahydroisoxazolo[4,5-c]pyridine-3-carbonyl)octahydro-cyclopenta[c]pyrrole-1-carboxamide], the EC50 is greater than 1 µM.

As to `CC1(NC(=O)C(=O)N2CC3(CCC3)C[C@H]2C(=O)N[C@@H](C[C@@H]2CCNC2=O)C(=O)COC(F)(F)F)CC1` [Compound 558, (S)-6-(2-((l-methylcyclopropyl)-amino)-2-oxoacetyl)-N-((S)-3-oxo-1-((S)-2-oxopyrrolidin-3-yl)-4-(trifluoromethoxy)butan-2-yl)-6-azaspiro[3.4]octane-7-carboxamide], the EC50 was greater than 1 µM.

For the compound `CC(C)(C)NC(=O)C(=O)N1C[C@H]2C[C@]1(C(=O)N[C@@H](C[C@@H]1CCNC1=O)C(=O)COC(F)(F)F)C2` [Compound 560, (1s,4R)-2-(2-(tert-butylamino)-2-oxoacetyl)-N-((S)-3-oxo-1-((S)-2-oxopyrrolidin-3-yl)-4-(trifluoromethoxy)butan-2-yl)-2-azabicyclo-[2.1.1]hexane-1-carboxamide], the EC50 is greater than 1 µM.

In the case of `O=C(Nc1ccccc1F)C(=O)N1C[C@H]2C[C@]1(C(=O)N[C@@H](C[C@@H]1CCNC1=O)C(=O)COC(F)(F)F)C2` [Compound 562, (1 s,4R)-2-(2-((2-fluorophenyl)amino)-2-oxoacetyl)-N-((S)-3-oxo-1-((S)-2-oxopyrrolidin-3-yl)-4-(trifluoromethoxy)butan-2-yl)-2-azabicyclo-[2.1.1]hexane-1-carboxamide], the concentration for a half-maximal effect (EC50) is greater than 1 µM.

On to `COC(=O)C(=O)N1C[C@@H]2CCC[C@@H]2[C@H]1C(=O)N[C@@H](C[C@@H]1CCNC1=O)C(=O)COC(F)(F)F` [Compound 569, methyl 2-oxo-2-((1S,3aR,6aS)-1-(((S)-3-oxo-1-((S)-2-oxopyrrolidin-3-yl)-4-(trifluoromethoxy)butan-2-yl)carbamoyl)-hexahydrocyclo-penta[c]-pyrrol-2(1H)-yl)acetate], for which the EC50 is greater than 1 µM.

Still in this assay, the particulars now being: Severe acute respiratory syndrome coronavirus 2, HeLa-ACE2, 24 h, HeLa-ACE2 cells, SARS-CoV-2 infection, 24 h; read-out: EC50, uM (Hela).
As to `O=C1NCC[C@H]1C[C@H](NC(=O)[C@@H]1[C@H]2CCC[C@H]2CN1C(=O)c1noc2c1COCC2)C(=O)COC(F)(F)F` [Compound 549, (1S,3aR,6aS)-2-(6,7-dihydro-4H-pyrano[3,4-d]isoxazole-3-carbonyl)-N-((S)-3-oxo-1-((S)-2-oxopyrrolidin-3-yl)-4-(trifluoromethoxy)butan-2-yl)octahydrocyclo-penta[c]pyrrole-1-carboxamide], the EC50 lay within 0.05 to 0.2 µM.

In the case of `Cc1ccccc1NC(=O)c1cn([C@@H](CC(C)C)C(=O)N[C@@H](C[C@@H]2CCNC2=O)C(=O)COC(F)(F)F)nn1` [Compound 552, 1-((S)-4-methyl-1-oxo-1-(((S)-3-oxo-1-((S)-2-oxopyrrolidin-3-yl)-4-(trifluoromethoxy)butan-2-yl)amino)pentan-2-yl)-N-(o-tolyl)-1H-l,2,3-triazole-4-carboxamide], the 50% effective concentration (EC50) is less than 0.05 µM.

As for `CC(C)(C)NC(=O)C(=O)N1C[C@H]2[C@@H]([C@H]1C(=O)N[C@@H](C[C@@H]1CCNC1=O)C(=O)COC(F)(F)F)C21CC1` [Compound 553, (1R,2S,5S)-3-(2-(tert-butylamino)-2-oxoacetyl)-N-((S)-3-oxo-1-((S)-2-oxopyrrolidin-3-yl)-4-(trifluoromethoxy)butan-2-yl)-3-azaspiro-[bicyclo[3.1.0]hexane-6,1'-cyclopropane]-2-carboxamide], the 50% effective concentration (EC50) is 0.05 to 0.2 µM.

Turning to `CC(C)(NC(=O)C(=O)N1C[C@@H]2CCC[C@@H]2[C@H]1C(=O)N[C@@H](C[C@@H]1CCNC1=O)C(=O)COC(F)(F)F)C(F)F` [Compound 554, (1S,3aR,6aS)-2-(2-((1,1-difluoro-2-methylpropan-2-yl)amino)-2-oxoacetyl)-N-((S)-3-oxo-1-((S)-2-oxopyrrolidin-3-yl)-4-(trifluoromethoxy)butan-2-yl)octahydro-cyclopenta[c]pyrrole-1-carboxamide], the EC50 was 0.05 to 0.2 µM.

Consider `CC(C)(NC(=O)C(=O)N1C[C@H]2[C@@H]([C@H]1C(=O)N[C@@H](C[C@@H]1CCNC1=O)C(=O)COC(F)(F)F)C2(C)C)C(F)F` [Compound 555, (1R,2S,5S)-3-(2-((l,l-difluoro-2-methylpropan-2-yl)amino)-2-oxoacetyl)-6,6-dimethyl-N-((S)-3-oxo-1-((S)-2-oxopyrrolidin-3-yl)-4-(trifluoromethoxy)butan-2-yl)-3-azabicyclo-[3.1.0]hexane-2-carboxamide], for which the EC50 was less than 0.05 µM.

For the compound `O=C1NCC[C@H]1C[C@H](NC(=O)[C@@H]1[C@H]2CCC[C@H]2CN1C(=O)c1noc2ccccc12)C(=O)COC(F)(F)F` [Compound 557, (1S,3aR,6aS)-2-(benzo[d]isoxazole-3-carbonyl)-N-((S)-3-oxo-1-((S)-2-oxopyrrolidin-3-yl)-4-(trifluoromethoxy)butan-2-yl)octahydro-cyclopenta[c]pyrrole-1-carboxamide], the EC50 was less than 0.05 µM.

`O=C1NCC[C@H]1C[C@H](NC(=O)[C@@H]1[C@H]2CCC[C@H]2CN1C(=O)OC1CCOC1)C(=O)COC(F)(F)F` (stereo partly drawn) [Compound 559, tetrahydrofuran-3-yl (1S,3aR,6aS)-1-(((S)-3-oxo-1-((S)-2-oxopyrrolidin-3-yl)-4-(trifluoromethoxy)butan-2-yl)carbamoyl)-hexahydrocyclo-penta[c]-pyrrole-2(1H)-carboxylate]: the EC50 fell in the range of 0.05 to 0.2 µM.

`CC(C)(C)NC(=O)C(=O)N1C[C@@H]2CC[C@@H]2[C@H]1C(=O)N[C@@H](C[C@@H]1CCNC1=O)C(=O)COC(F)(F)F` [Compound 561, (1S,2S,5R)-3-(2-(tert-butylamino)-2-oxoacetyl)-N-((S)-3-oxo-1-((S)-2-oxopyrrolidin-3-yl)-4-(trifluoromethoxy)butan-2-yl)-3-azabicyclo-[3.2.0]heptane-2-carboxamide]: the EC50 lay in the range of 0.2 to 0.5 µM.

On to `O=C(Nc1ccccc1F)C(=O)N1C[C@@H]2CC[C@@H]2[C@H]1C(=O)N[C@@H](C[C@@H]1CCNC1=O)C(=O)COC(F)(F)F` [Compound 563, (1S,2S, 5R)-3-(2-((2-fluorophenyl)amino)-2-oxoacetyl)-N-((S)-3-oxo-1-((S)-2-oxopyrrolidin-3-yl)-4-(trifluoromethoxy)butan-2-yl)-3-azabicyclo-[3.2.0]heptane-2-carboxamide], for which the EC50 fell in the range of 0.05 to 0.2 µM.

Turning to `CC(C)(C[C@H](NC(=O)C(=O)NC12CC(F)(C1)C2)C(=O)N[C@@H](C[C@@H]1CCNC1=O)C(=O)COC(F)(F)F)C(F)F` [Compound 564, N1-((S)-5,5-difluoro-4,4-dimethyl-1-oxo-1-(((S)-3-oxo-1-((S)-2-oxopyrrolidin-3-yl)-4-(trifluoromethoxy)butan-2-yl)amino)pentan-2-yl)-N2-(3-fluorobicyclo[1.1.1]-pentan-1-yl)oxalamide], the EC50 was less than 0.05 µM.

In the case of `O=C(N[C@@H](CC1CCC1)C(=O)N[C@@H](C[C@@H]1CCNC1=O)C(=O)COC(F)(F)F)C(=O)NC12CC(F)(C1)C2` [Compound 565, N1-((S)-3-cyclobutyl-1-oxo-1-(((S)-3-oxo-1-((S)-2-oxopyrrolidin-3-yl)-4-(trifluoromethoxy)butan-2-yl)amino)propan-2-yl)-N2-(3-fluorobicyclo[1.1.1]-pentan-1-yl)oxalamide], the half-maximal effective concentration (EC50) was less than 0.05 µM.

For `CC(C)(C#N)NC(=O)C(=O)N1C[C@@H]2CCC[C@@H]2[C@H]1C(=O)N[C@@H](C[C@@H]1CCNC1=O)C(=O)COC(F)(F)F` [Compound 566, (1S,3aR,6aS)-2-(2-((2-cyanopropan-2-yl)amino)-2-oxoacetyl)-N-((S)-3-oxo-1-((S)-2-oxopyrrolidin-3-yl)-4-(trifluoromethoxy)butan-2-yl)octahydrocyclo-penta[c]pyrrole-1-carboxamide], the EC50 was 0.05 to 0.2 µM.

Take `CC(C)(C)NC(=O)C(=O)N1CCC[C@@]1(CC1CC1)C(=O)N[C@@H](C[C@@H]1CCNC1=O)C(=O)COC(F)(F)F` [Compound 567, (R)-1-(2-(tert-butylamino)-2-oxoacetyl)-2-(cyclopro-pylmethyl)-N-((S)-3-oxo-1-((S)-2-oxopyrrolidin-3-yl)-4-(trifluoromethoxy)butan-2-yl)pyrrolidine-2-carboxamide]: the concentration for a half-maximal effect (EC50) lay in the range of 0.2 to 0.5 µM.

Turning to `CC1(C)CCc2onc(C(=O)N3CC4(CC4)C[C@H]3C(=O)N[C@@H](C[C@@H]3CCNC3=O)C(=O)COC(F)(F)F)c2C1` [Compound 568, (S)-5-(5,5-dimethyl-4,5,6,7-tetrahydro-benzo[d]isoxazole-3-carbonyl)-N-((S)-3-oxo-1-((S)-2-oxopyrrolidin-3-yl)-4-(trifluoromethoxy)butan-2-yl)-5-azaspiro[2.4]-heptane-6-carboxamide], the EC50 lay within 0.05 to 0.2 µM.

For the compound `O=C(NCC(F)(F)F)C(=O)N1CC2(CC2)C[C@H]1C(=O)N[C@@H](C[C@@H]1CCNC1=O)C(=O)COC(F)(F)F` [Compound 570], the EC50 was in the range of 0.05 to 0.2 µM.
